Test results from patent US9181264B2, “Fused heteroaryls and their uses” (Hutchison MediPharma Limited, priority 2011, dated 2015).

Target: T1, PI3Kα kinase (Homo sapiens, UniProt P42336)
T1 construct: purchased Invitrogen PV4788
Test: PI3Ka Transcreener ADP assay (fluorescence polarization)
Format: biochemical
Conditions: 10 μM ATP, 30 μmol/L lipid substrate; read-out: IC50, inhibition of PI3Kα kinase
Protocol: Fluorescence polarization was used in this assay. The final conditions for kinase assay are 10 μM of ATP, 0.2 ng/μL of PI3Kα kinase, 30 μmol/L of lipid substrate and assay buffer (50 mmol/L of HEPES (pH 7.5), 100 mmol/L of NaCl, 1 mmol/L of EGTA, 3 mmol/L of MgCl2, 1 mmol/L of DTT and 0.03% CHAPS and 2% DMSO).
5 μL of test compounds in 10% DMSO and 10 μL of 0.5 ng/μL PI3K kinase (Invitrogen, PV4788) in assay buffer are put into a 96-well plate (Greiner, Cat. 675076), and then the reaction is started by the addition of 10 μL of 75 μmol/L PIP2, (PS Lipid Substrate Invitrogen, PV5100), and 25 μmol/L ATP mixture. After the mixture is incubated for 60 minutes at room temperature, 25 μL of transcreener Kinase Kit reagent—ADP Detection Mix—(Bellbrook Labs) is added, and the reaction is continued for an additional 1.5 hours. At the end, the plate is read in a Tecan Infinite F500 at excitation of 610 nm and emission of 670 nm.
A standard curve for ADP is obtained in a parallel way by replacing compound and PI3Kα kinase with DMSO and assay buffer, respectively. Different concentration of ADP, 0-10 μM, and ATP, 10-0 μM (ATP+ADP equal to 10 μM) are applied instead of a fixed concentration of ATP in this standard curve assay. Other conditions are the same as described above. The standard curve is plotted using Origin 8.0 software. The inhibition of test compound on ADP production is calculated based on ADP concentration from standard curve. IC50 is obtained using XLfit 2.0 software.

T1 sequence (P42336 whole entry): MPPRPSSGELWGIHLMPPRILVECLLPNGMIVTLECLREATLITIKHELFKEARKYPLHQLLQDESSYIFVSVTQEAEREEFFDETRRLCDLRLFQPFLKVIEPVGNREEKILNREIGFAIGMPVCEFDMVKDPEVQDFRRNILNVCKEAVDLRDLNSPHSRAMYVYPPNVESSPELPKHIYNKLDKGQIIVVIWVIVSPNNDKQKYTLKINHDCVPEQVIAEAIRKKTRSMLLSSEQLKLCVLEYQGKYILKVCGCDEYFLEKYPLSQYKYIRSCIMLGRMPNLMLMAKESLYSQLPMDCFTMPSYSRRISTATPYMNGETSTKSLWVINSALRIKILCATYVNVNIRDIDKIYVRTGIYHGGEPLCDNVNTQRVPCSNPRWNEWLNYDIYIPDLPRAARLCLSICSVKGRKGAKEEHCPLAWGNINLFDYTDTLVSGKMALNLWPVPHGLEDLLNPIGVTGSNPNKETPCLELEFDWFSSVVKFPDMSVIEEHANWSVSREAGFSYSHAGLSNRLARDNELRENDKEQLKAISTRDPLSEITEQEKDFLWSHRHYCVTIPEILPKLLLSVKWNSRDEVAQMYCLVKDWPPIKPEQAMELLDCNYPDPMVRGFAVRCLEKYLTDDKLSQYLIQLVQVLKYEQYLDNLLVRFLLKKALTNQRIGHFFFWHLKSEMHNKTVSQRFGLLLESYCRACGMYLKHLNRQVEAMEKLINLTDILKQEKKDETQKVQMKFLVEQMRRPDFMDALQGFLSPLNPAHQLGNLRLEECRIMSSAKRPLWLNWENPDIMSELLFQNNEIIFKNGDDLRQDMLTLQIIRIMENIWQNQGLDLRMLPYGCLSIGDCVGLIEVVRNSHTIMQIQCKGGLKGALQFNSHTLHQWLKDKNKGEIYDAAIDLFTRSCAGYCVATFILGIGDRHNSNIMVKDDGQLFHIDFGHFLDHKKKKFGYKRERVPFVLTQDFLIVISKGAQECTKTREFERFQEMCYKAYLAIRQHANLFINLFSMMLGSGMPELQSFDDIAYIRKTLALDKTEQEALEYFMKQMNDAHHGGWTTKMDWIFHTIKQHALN
T1 sequence (P27986 whole entry partner): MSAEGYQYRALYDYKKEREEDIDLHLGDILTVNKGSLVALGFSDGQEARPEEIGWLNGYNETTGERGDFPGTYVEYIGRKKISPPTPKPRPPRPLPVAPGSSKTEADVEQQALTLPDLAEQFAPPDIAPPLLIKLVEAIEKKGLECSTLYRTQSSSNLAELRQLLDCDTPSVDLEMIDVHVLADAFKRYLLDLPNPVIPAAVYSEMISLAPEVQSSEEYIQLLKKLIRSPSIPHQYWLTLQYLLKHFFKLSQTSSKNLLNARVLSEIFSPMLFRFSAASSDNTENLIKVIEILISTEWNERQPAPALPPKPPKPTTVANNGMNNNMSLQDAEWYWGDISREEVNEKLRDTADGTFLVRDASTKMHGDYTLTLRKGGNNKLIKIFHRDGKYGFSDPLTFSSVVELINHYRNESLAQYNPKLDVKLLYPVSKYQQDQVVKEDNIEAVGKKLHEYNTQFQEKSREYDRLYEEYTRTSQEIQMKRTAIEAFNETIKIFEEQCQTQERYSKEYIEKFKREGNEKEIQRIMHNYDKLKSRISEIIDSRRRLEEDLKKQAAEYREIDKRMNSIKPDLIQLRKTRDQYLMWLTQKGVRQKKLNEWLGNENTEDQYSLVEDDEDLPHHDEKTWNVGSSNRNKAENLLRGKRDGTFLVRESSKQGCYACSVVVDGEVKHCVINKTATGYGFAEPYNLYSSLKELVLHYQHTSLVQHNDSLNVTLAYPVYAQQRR

| IC50 [nM] | SMILES |
| --- | --- |
| < 100 | CC(=O)N1CCC(n2nnc3cnc4ccc(-c5cnc(N)c(C(F)(F)F)c5)cc4c32)CC1 [Compound 15] |
| < 100 | C[C@H](O)C(=O)N1CCC(n2nnc3cnc4ccc(-c5cnc(N)c(C(F)(F)F)c5)cc4c32)CC1 [Compound 23] |
| < 100 | C[C@@H](O)C(=O)N1CCC(n2nnc3cnc4ccc(-c5cnc(N)c(C(F)(F)F)c5)cc4c32)CC1 [Compound 24] |
| < 100 | Nc1ncc(-c2ccc3ncc4nnn(C5CCN(C(=O)CC6CC6)CC5)c4c3n2)cc1C(F)(F)F [Compound 38] |
| < 100 | CC(C)(C#N)c1ccc(-c2nnc3cnc4ccc(-c5cnc(N)c(C(F)(F)F)c5)cc4n23)cn1 [Compound 54] |
| < 100 | Nc1ncc(-c2ccc3ncc4nnc(-c5ccc(F)cn5)n4c3c2)cc1C(F)(F)F [Compound 59] |
| < 100 | N#Cc1cccc(-c2nnc3cnc4ccc(-c5cnc(N)c(C(F)(F)F)c5)cc4n23)c1 [Compound 62] |
| < 100 | N#Cc1ccc(-c2nnc3cnc4ccc(-c5cnc(N)c(C(F)(F)F)c5)cc4n23)cc1 [Compound 64] |
| < 100 | Cc1ccc(-c2nnc3cnc4ccc(-c5cnc(N)c(C(F)(F)F)c5)cc4n23)cn1 [Compound 65] |
| < 100 | CC(C)(C#N)C(=O)c1ccc(-c2nnc3cnc4ccc(-c5cnc(N)c(C(F)(F)F)c5)cc4n23)cc1 [Compound 68] |
| < 100 | Nc1ncc(-c2ccc3ncc4nnc(-c5ccc(F)cc5)n4c3c2)cc1C(F)(F)F [Compound 70] |
| < 100 | CS(=O)(=O)c1ccc(-c2nnc3cnc4ccc(-c5cnc(N)c(C(F)(F)F)c5)cc4n23)cc1 [Compound 71] |
| < 100 | C[C@H](O)C(=O)N1CCC(c2nnc3cnc4ccc(-c5cnc(N)c(C(F)(F)F)c5)cc4n23)CC1 [Compound 79, (S)-1-(4-(8-(6-amino-5-(trifluoromethyl)pyridin-3-yl)-[1,2,4]triazolo[4,3-a]quinoxalin-1-yl)piperidin-1-yl)-2-hydroxypropan-1-one] |
| < 100 | CC(=O)N1CCC(Cc2nnc3cnc4ccc(-c5cnc(N)c(C(F)(F)F)c5)cc4n23)CC1 [Compound 82] |
| < 100 | CC(=O)N1CCC(Cc2nnc3cnc4ccc(-c5ccc6nc(N)sc6c5)cc4n23)CC1 [Compound 83] |
| < 100 | Nc1ncc(-c2ccc3ncc4nnc(C5CCC(O)CC5)n4c3c2)cc1C(F)(F)F (stereo not shown) [Compound 85] |
| < 100 | Nc1ncc(-c2ccc3ncc4nnc(CN5CCCC5)n4c3c2)cc1C(F)(F)F [Compound 87] |

Continued, molecule first:

| SMILES | IC50 [nM] |
| --- | --- |
| Cc1ccc(-c2ccc3ncc4nnn(C5CCN(C(=O)[C@H](C)O)CC5)c4c3n2)cn1 [Compound 2] | < 100 |
| Cc1cc(-c2ccc3ncc4nnn(C5CCN(C(=O)[C@H](C)O)CC5)c4c3n2)cnc1N [Compound 3] | < 100 |
| COc1ccc(-c2ccc3ncc4nnn(C5CCN(C(=O)[C@H](C)O)CC5)c4c3n2)cn1 [Compound 5] | < 100 |
| C[C@H](O)C(=O)N1CCC(n2nnc3cnc4ccc(-c5cnc6[nH]ccc6c5)nc4c32)CC1 [Compound 8] | < 100 |
| Nc1ncc(-c2ccc3ncc4nnn(C5CCN(C(=O)C6CC6)CC5)c4c3n2)cc1F [Compound 11] | < 100 |
| Nc1ncc(-c2ccc3ncc4nnn(-c5cccc(Cl)c5)c4c3c2)cn1 [Compound 13] | < 100 |
| CC(C)(C#N)c1ccc(-n2nnc3cnc4ccc(-c5cnc(N)nc5)nc4c32)cc1 [Compound 18] | < 100 |
| Nc1ncc(-c2ccc3ncc4nnn(C5CCN(CC6CC6)CC5)c4c3n2)cc1C(F)(F)F [Compound 20] | < 100 |
| Cc1cc(-c2ccc3ncc4nnn(C5CCN(C(=O)[C@@H](C)O)CC5)c4c3n2)cnc1N [Compound 22] | < 100 |
| C=CC(=O)N1CCC(n2nnc3cnc4ccc(-c5cnc(N)c(C(F)(F)F)c5)nc4c32)CC1 [Compound 28] | < 100 |
| C=CC(=O)N1CCC(n2nnc3cnc4ccc(-c5cnc(N)c(C)c5)nc4c32)CC1 [Compound 29] | < 100 |
| CC(C)C(=O)N1CCC(n2nnc3cnc4ccc(-c5cnc(N)c(F)c5)nc4c32)CC1 [Compound 31] | < 100 |
| CN1CCC(C(=O)N2CCC(n3nnc4cnc5ccc(-c6cnc(N)c(C(F)(F)F)c6)nc5c43)CC2)CC1 [Compound 36] | < 100 |
| CCCCC(=O)N1CCC(n2nnc3cnc4ccc(-c5cnc(N)c(C(F)(F)F)c5)nc4c32)CC1 [Compound 37] | < 100 |
| Nc1ncc(-c2ccc3ncc4nnn(C5CCN(C(=O)C6(O)CC6)CC5)c4c3n2)cc1C(F)(F)F [Compound 39] | < 100 |
| Nc1ncc(-c2ccc3ncc4nnn(C5CCN(C(=O)c6ccccn6)CC5)c4c3n2)cc1C(F)(F)F [Compound 40] | < 100 |
| Nc1ncc(-c2ccc3ncc4nnn(C5CCN(C(=O)c6ccccc6)CC5)c4c3n2)cc1C(F)(F)F [Compound 41] | < 100 |
| Nc1ncc(-c2ccc3ncc4nnn(C5CCN(Cc6ccccn6)CC5)c4c3n2)cc1C(F)(F)F [Compound 47] | < 100 |

| SMILES | IC50 [nM] |
| --- | --- |
| Nc1ncc(-c2ccc3ncc4nnn(C5CCN(CC6CCOCC6)CC5)c4c3n2)cc1C(F)(F)F [Compound 48, 5-(1-(1-((tetrahydro-2H-pyran-4-yl)methyl)piperidin-4-yl)-1H-[1,2,3]triazolo[4,5-c][1,5]naphthyridin-8-yl)-3-(trifluoromethyl)pyridin-2-amine] | < 100 |
| Cc1cc(-c2ccc3ncc4nnc(-c5ccc(C(C)(C)C#N)nc5)n4c3c2)cnc1N [Compound 57] | < 100 |
| Nc1nc2ccc(-c3ccc4ncc5nnc(-c6ccc(F)cn6)n5c4c3)cc2s1 [Compound 60] | < 100 |
| CC(C)(C#N)c1ccc(-c2nnc3cnc4ccc(-c5ccc6[nH]ncc6c5)cc4n23)cc1 [Compound 61] | < 100 |
| CC(C)(C#N)c1ccc(-c2nnc3cnc4ccc(-c5ccc6nc(N)oc6c5)cc4n23)cn1 [Compound 67] | < 100 |
| CC(C)(C#N)c1ccc(-c2nnc3cnc4ccc(-c5cnc6[nH]ccc6c5)cc4n23)cc1 [Compound 69] | < 100 |
| N#Cc1ccc(-c2nnc3cnc4ccc(-c5ccc6nc(N)sc6c5)cc4n23)nc1 [Compound 73] | < 100 |
| COc1ncc(-c2ccc3ncc4nnc(-c5ccc(C(C)(C)C#N)cc5)n4c3c2)cc1N [Compound 74] | < 100 |
| COc1cc(-c2ccc3ncc4nnc(-c5ccc(C(C)(C)C#N)cc5)n4c3c2)cnc1OC [Compound 76] | < 100 |
| CC(C)(C#N)c1ccc(-c2nnc3cnc4ccc(-c5cnc(N)c(Cl)c5)cc4n23)cc1 [Compound 77] | < 100 |
| C[C@H](O)C(=O)N1CCC(c2nnc3cnc4ccc(-c5ccc6nc(N)sc6c5)cc4n23)CC1 [Compound 80] | < 100 |
| C[C@@H](O)C(=O)N1CCC(c2nnc3cnc4ccc(-c5ccc6nc(N)sc6c5)cc4n23)CC1 [Compound 81] | < 100 |
| CC(=O)N1CCCC(c2nnc3cnc4ccc(-c5ccc6nc(N)sc6c5)cc4n23)C1 (stereo not shown) [Compound 84] | < 100 |
| CC(C)(C#N)c1ccc(-n2cnc3cnc4ccc(-c5cnc(N)c(C(F)(F)F)c5)nc4c32)cn1 [Compound 89] | < 100 |
| Cc1cc(-c2ccc3ncc4ncn(-c5ccc(C(C)(C)C#N)nc5)c4c3n2)cnc1N [Compound 90] | < 100 |
| COc1cc(-c2ccc3ncc4ncn(-c5ccc(C(C)(C)C#N)nc5)c4c3n2)cnc1OC [Compound 92] | < 100 |
| CC(C)(C#N)c1ccc(-n2cnc3cnc4ccc(-c5cnc(N)nc5)nc4c32)cn1 [Compound 94] | < 100 |
